# Measurements: US20250188457A1, “COMPOSITIONS AND METHODS FOR THE TREATMENT OF GLIOBLASTOMA BY INHIBITION OF THE TFPI2-CD51-STAT6 SIGNALING AXIS” (Northwestern University, priority 2023, published 2025)
# Tests used:
# [1] = test system: JURKAT T cells cocultured with PrhMG; assay: Human microglia-T cell co-culture, flow cytometry; format: cell-based; conditions: TFPI2 recombinant protein 20 ng/ml; AS1517499 25 nM
# Protocol: For membrane protein staining, the single-cell suspensions were washed with PBS and then incubated with fixable viability dye (Invitrogen, #5211229035) on ice for 10 min. Following washing with PBS, cells were incubated with the anti-CD16/CD32 cocktail (BioLegend, #103132) in 2% BSA PBS to block Fc receptors for 30 min on ice. Different antibody combinations, including Percp/Cy5.5 anti-mouse CD45 (BioLegend, #103132), AF488 anti-mouse CD3 (BioLegend, #100210), BV421 anti-mouse CX3CR1 (BD Bioscience, #567531), BUV395 anti-mouse CD4 (BD Bioscience, #740208), BV711 anti-mouse CD8 (BioLegend, #100747), PE/Cy7 anti-mouse/human CD11b (BioLegend, #101216), PE anti-mouse CD68 (BD Bioscience, #566386), PE anti-mouse PD1 (BioLegend, #135205), AF647 anti-mouse CD206 (BD Bioscience, #565250), AF647 anti-human CD206 (BioLegend, #321116), PE anti-human CD69 (BioLegend, #310906), PE/Cy7 anti-mouse CD69 (BioLegend, #104512), and BV650 anti-human HLA-DR (BioLegend, #307650) were added to cell suspensions for 30 min on ice. […] Samples were read in BD FACSymphony flow cytometer and analyzed in FlowJo v10.8.1. […] Then cell suspensions were rewashed in permeabilization buffer and read in BD FACSymphony flow cytometer.
# 005 GSC and CT2A tumors = assay: Survival of C57BL/6 mice implanted with 005 GSCs or CT2A cells; format: in vivo, mouse; conditions: anti-PD1 10 mg/kg i.p. on days 11, 14 and 17, MK-0429 30 mg/kg or AS1517499 10 mg/kg i.p. every other day
# Protocol: Female C57BL/6 (#0000664), nude mice (#007850), and B6.12952(C)-Stat6tm1Gru/J mice (STAT6-KO; #005977) at 6 weeks of age were purchased from the Jackson Laboratory. Mice were grouped by 5 animals and maintained in a pathogen-free IVC System (San Diego, CA) for a week before the experiment. All animal experiments were performed with the approval of the Institutional Animal Care and Use Committee (IACUC) at Northwestern University. The intracranial xenograft tumor models were established (Refs. 11, 61; incorporated by reference in their entireties). Ketamine (100 mg/kg) and xylazine (20 mg/kg) were used for anesthetizing mice through intraperitoneal injection. Then a dental drill was used to open a small hole in the skull 1.2 mm anterior and 3.0 mm lateral to the bregma. A total volume of […] cells in FBS-free DMEM was injected into the right caudate nucleus 3 mm below the surface of the brain using a […] Hamilton syringe with an unbeveled 30-gauge needle. Total three doses of 20 mg/kg meloxicam were administrated before and after surgery through subcutaneous injection. After cancer cell implantation, mice were monitored for recording survival. Mice with neurological deficits or moribund appearance were sacrificed. Following the transcardiac perfusion with PBS and 4% paraformaldehyde (PFA), brains were removed and fixed in 4% PFA, and were processed for paraffin-embedded blocks or cryosectioning.
# CD51 = assay: Co-immunoprecipitation of TFPI2 and CD51 in microglia; format: binding, human and mouse; conditions: SIM-A9 and HMC3 microglia treated with 20 ng/ml TFPI2 recombinant protein for 1 hr; anti-CD51 or anti-TFPI2 antibody
# Protocol: Co-IP was performed using Invitrogen™ Dynabeads™ Protein G Immunoprecipitation Kit (Thermo Fisher Scientific, #10007D). Briefly, human or mouse microglia were treated with 20 ng/ml TFPI2 recombinant protein for 1 hr. RIPA lysis buffer was then used to extract protein after washing with PBS. Magnetic beads (1.5 mg) were separated from the solution using a magnetic stand. […] TFPI2 antibody (Abcam, #ab186747), CD51 antibody (Cell Signaling Technology, #4711S), or rabbit IgG (isotype control, Cell Signaling Technology, #2729) was prepared in […] of antibody binding and washing Buffer. Antibody or IgG was incubated with magnetic beads for 10 min at room temperature with rotation. After removing the supernatant, antibody/IgG-conjugated magnetic beads were incubated with cell lysis buffer for 2 hrs at room temperature with rotation to immunoprecipitate TFPI2- or CD51-interacting antigens. The magnetic bead-antibody-antigen complex was washed three times using […] washing buffer and then eluted with the elution buffer. The complex was loaded into 4-12% SurePAGE gels to evaluate target protein expression after Co-IP.
molecule,measurement,setting,value
NC(=O)c1cnc(NCCc2ccc(O)c(Cl)c2)nc1NCc1ccccc1 [AS1517499],suppression of JURKAT T cell viability and activation by TFPI2-polarized microglia,[1],prevented
same,"survival of mice bearing 005 GSC and CT2A tumors, combination with anti-PD1 therapy",005 GSC and CT2A tumors,synergized
"TFPI2 recombinant protein (tissue factor pathway inhibitor 2; BioVision, #7481-10) (ligand, UniProt P48307 23-235, looked up, Bought recombinant protein added to microglia at 20 ng/ml; also called recombinant TFPI2; secreted TFPI2) DAAQEPTGNNAEICLLPLDYGPCRALLLRYYYDRYTQSCRQFLYGGCEGNANNFYTWEACDDACWRIEKVPKVCRLQVSVDDQCEGSTEKYFFNLSSMTCEKFFSGGCHRNRIENRFPDEATCMGFCAPKKIPSFCYSPKDEGLCSANVTRYYFNPRYRTCDAFTYTGCGGNDNNFVSREDCKRACAKALKKKKKMPKLRFASRIRKIRKKQF",interaction between CD51 and TFPI2,CD51,confirmed
